Earlier results in patent publication US20220409533A1, “LAG TIME REDUCTION/ICE SPRAY” (LTS LOHMANN THERAPIE-SYSTEME AG, priority 2019, published 2022).

Settings: transdermal application

## CN1CCCC1c1cccnc1 (stereo not shown) [nicotine]
  resorption delay time (lag time): 6 h
